This is an account of results in patent US10689381B2 (priority 2017, dated 2020).

Where two headings read alike, the source gives them in different places.

Experiment [1] has as its system L1210. Description: cells. The class given is cell-based, mouse. The method, boiled down: (§1)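 Cells seeded at 30,000 cells/mL in DMEM with 10% FBS, then exposed for 72 h to compound at six concentrations spanning 0–1000 nM or 0–10000 nM, in duplicate. Final incubation at 37 °C lasted 5 min for L1210 and 15 min for HCT116.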
For experiment [2], the system named is HCT116. Description: cells. The settings on record: read-out: IC50 HCT116. The experiment is classed as cell-based, human. The gist of the method:
as §1

A word on the IC50: it is the concentration needed to halve the response being measured. Turning to `CCC1(NC(=O)c2cnc3ccccc3n2)CC2CN(CCc3c([nH]c4ccccc34)C(C(=O)OC)(c3cc4c(cc3OC)N(C)C3C(O)(C(=O)OC)C(OC(C)=O)C5(CC)C=CCN6CCC43C65)C2)C1` (centres unmarked) [Compound 156], the IC50 in experiment [1] (Table 6) turned out to be 6.2 nM; in experiment [2] (Table 6), 5.9 nM.
In the same order, the values of `CCC1(NC(=O)c2ccc3ccoc3c2)CC2CN(CCc3c([nH]c4ccccc34)C(C(=O)OC)(c3cc4c(cc3OC)N(C)C3C(O)(C(=O)OC)C(OC(C)=O)C5(CC)C=CCN6CCC43C65)C2)C1` (centres unmarked) [Compound 157] are 3.3 nM and 2.2 nM.
`CCC1(NC(=O)c2ccc3occc3c2)CC2CN(CCc3c([nH]c4ccccc34)C(C(=O)OC)(c3cc4c(cc3OC)N(C)C3C(O)(C(=O)OC)C(OC(C)=O)C5(CC)C=CCN6CCC43C65)C2)C1` (centres unmarked) [Compound 158]: the IC50 was 5 nM in experiment [1] (Table 6) and 3.8 nM in experiment [2] (Table 6).
In the same order, the values of `CCC1(NC(=O)c2coc3ccccc23)CC2CN(CCc3c([nH]c4ccccc34)C(C(=O)OC)(c3cc4c(cc3OC)N(C)C3C(O)(C(=O)OC)C(OC(C)=O)C5(CC)C=CCN6CCC43C65)C2)C1` (centres unmarked) [Compound 159] are 4 nM and 4.6 nM.
In the same order, the values of `CC[C@]1(NC(=O)c2cc3ccccc3o2)C[C@H]2CN(CCc3c([nH]c4ccccc34)[C@@](C(=O)OC)(c3cc4c(cc3OC)N(C)[C@H]3[C@@](O)(C(=O)OC)[C@H](OC(C)=O)[C@]5(CC)C=CCN6CC[C@]43[C@@H]65)C2)C1` [Compound 160] are 1.8 nM and 1.1 nM.
In the same order, the values of `CCC1(NC(=O)c2ccc3c(c2)CCO3)CC2CN(CCc3c([nH]c4ccccc34)C(C(=O)OC)(c3cc4c(cc3OC)N(C)C3C(O)(C(=O)OC)C(OC(C)=O)C5(CC)C=CCN6CCC43C65)C2)C1` (centres unmarked) [Compound 161] are 0.3 nM and 0.25 nM.
Turning to `CC[C@]1(NC(=O)c2ccc3ccsc3c2)C[C@H]2CN(CCc3c([nH]c4ccccc34)[C@@](C(=O)OC)(c3cc4c(cc3OC)N(C)[C@H]3[C@@](O)(C(=O)OC)[C@H](OC(C)=O)[C@]5(CC)C=CCN6CC[C@]43[C@@H]65)C2)C1` [Compound 162], the half-inhibitory concentration (IC50) was 3.1 nM in experiment [1] (Table 6) and 2.9 nM in experiment [2] (Table 6).
In the same order, the values of `CCC1(NC(=O)c2ccc3sccc3c2)CC2CN(CCc3c([nH]c4ccccc34)C(C(=O)OC)(c3cc4c(cc3OC)N(C)C3C(O)(C(=O)OC)C(OC(C)=O)C5(CC)C=CCN6CCC43C65)C2)C1` (centres unmarked) [Compound 163] are 4.2 nM and 4.9 nM.
In the case of `CC[C@]1(NC(=O)c2csc3ccccc23)C[C@H]2CN(CCc3c([nH]c4ccccc34)[C@@](C(=O)OC)(c3cc4c(cc3OC)N(C)[C@H]3[C@@](O)(C(=O)OC)[C@H](OC(C)=O)[C@]5(CC)C=CCN6CC[C@]43[C@@H]65)C2)C1` [Compound 164], the IC50 in experiment [1] (Table 6) amounted to 5.2 nM; in experiment [2] (Table 6) it was 5.7 nM.
As for `CC[C@]1(NC(=O)c2cc3ccccc3s2)C[C@H]2CN(CCc3c([nH]c4ccccc34)[C@@](C(=O)OC)(c3cc4c(cc3OC)N(C)[C@H]3[C@@](O)(C(=O)OC)[C@H](OC(C)=O)[C@]5(CC)C=CCN6CC[C@]43[C@@H]65)C2)C1` [Compound 165], the IC50 in experiment [1] (Table 6) amounted to 3.1 nM; in experiment [2] (Table 6), 1.9 nM.
In the case of `CCC1(NC(=O)c2ccc3c(c2)ncn3C)CC2CN(CCc3c([nH]c4ccccc34)C(C(=O)OC)(c3cc4c(cc3OC)N(C)C3C(O)(C(=O)OC)C(OC(C)=O)C5(CC)C=CCN6CCC43C65)C2)C1` (centres unmarked) [Compound 166], the IC50 in experiment [1] (Table 6) is 0.7 nM; in experiment [2] (Table 6) it was 0.6 nM.
Take `CC[C@]1(NC(=O)c2ccc3ncoc3c2)C[C@H]2CN(CCc3c([nH]c4ccccc34)[C@@](C(=O)OC)(c3cc4c(cc3OC)N(C)[C@H]3[C@@](O)(C(=O)OC)[C@H](OC(C)=O)[C@]5(CC)C=CCN6CC[C@]43[C@@H]65)C2)C1` [Compound 167]: the IC50 in experiment [1] (Table 6) and in experiment [2] (Table 6) was 0.6 nM each time.
In the case of `CCC1(NC(=O)c2ccc3ocnc3c2)CC2CN(CCc3c([nH]c4ccccc34)C(C(=O)OC)(c3cc4c(cc3OC)N(C)C3C(O)(C(=O)OC)C(OC(C)=O)C5(CC)C=CCN6CCC43C65)C2)C1` (centres unmarked) [Compound 168], the IC50 was determined as 5.4 nM in experiment [1] (Table 6) and 5.1 nM in experiment [2] (Table 6).
In the same order, the values of `CC[C@]1(NC(=O)c2nc3ccccc3o2)C[C@H]2CN(CCc3c([nH]c4ccccc34)[C@@](C(=O)OC)(c3cc4c(cc3OC)N(C)[C@H]3[C@@](O)(C(=O)OC)[C@H](OC(C)=O)[C@]5(CC)C=CCN6CC[C@]43[C@@H]65)C2)C1` [Compound 169] are 60 nM and 60 nM.
In the same order, the values of `CC[C@]1(NC(=O)c2ccc3ncsc3c2)C[C@H]2CN(CCc3c([nH]c4ccccc34)[C@@](C(=O)OC)(c3cc4c(cc3OC)N(C)[C@H]3[C@@](O)(C(=O)OC)[C@H](OC(C)=O)[C@]5(CC)C=CCN6CC[C@]43[C@@H]65)C2)C1` [Compound 170] are 0.5 nM and 0.6 nM.
For the compound `CC[C@]1(NC(=O)c2ccc3scnc3c2)C[C@H]2CN(CCc3c([nH]c4ccccc34)[C@@](C(=O)OC)(c3cc4c(cc3OC)N(C)[C@H]3[C@@](O)(C(=O)OC)[C@H](OC(C)=O)[C@]5(CC)C=CCN6CC[C@]43[C@@H]65)C2)C1` [Compound 171], the IC50 in experiment [1] (Table 6) is 0.6 nM; in experiment [2] (Table 6), 0.7 nM.
In the same order, the values of `CCC1(NC(=O)c2nc3ccccc3s2)CC2CN(CCc3c([nH]c4ccccc34)C(C(=O)OC)(c3cc4c(cc3OC)N(C)C3C(O)(C(=O)OC)C(OC(C)=O)C5(CC)C=CCN6CCC43C65)C2)C1` (centres unmarked) [Compound 172] are 180 nM and 80 nM.
In the same order, the values of `CCC1(NC(=O)c2ccc3c(c2)OCO3)CC2CN(CCc3c([nH]c4ccccc34)C(C(=O)OC)(c3cc4c(cc3OC)N(C)C3C(O)(C(=O)OC)C(OC(C)=O)C5(CC)C=CCN6CCC43C65)C2)C1` (centres unmarked) [Compound 174] are 0.6 nM and 0.8 nM.
In the same order, the values of `CCC1(NC(=O)c2ccc3c(c2)OCCO3)CC2CN(CCc3c([nH]c4ccccc34)C(C(=O)OC)(c3cc4c(cc3OC)N(C)C3C(O)(C(=O)OC)C(OC(C)=O)C5(CC)C=CCN6CCC43C65)C2)C1` (centres unmarked) [Compound 175] are 0.6 nM and 0.5 nM.
For `CCC1(NC(=O)c2ccc3c(c2)OCCN3C)CC2CN(CCc3c([nH]c4ccccc34)C(C(=O)OC)(c3cc4c(cc3OC)N(C)C3C(O)(C(=O)OC)C(OC(C)=O)C5(CC)C=CCN6CCC43C65)C2)C1` (centres unmarked) [Compound 176], the IC50 in experiment [1] (Table 6) and in experiment [2] (Table 6) was 0.3 nM in each case.
Turning to `CCC1(NC(=O)c2ccc3c(c2)CCN3)CC2CN(CCc3c([nH]c4ccccc34)C(C(=O)OC)(c3cc4c(cc3OC)N(C)C3C(O)(C(=O)OC)C(OC(C)=O)C5(CC)C=CCN6CCC43C65)C2)C1` (centres unmarked) [Compound 177], the results for the IC50 in experiment [1] (Table 6) and in experiment [2] (Table 6) were 5.1 nM and 6.7 nM, respectively.
With `CC[C@]1(NC(=O)c2ccc3c(c2)CCN3C(=O)OC(C)(C)C)C[C@H]2CN(CCc3c([nH]c4ccccc34)[C@@](C(=O)OC)(c3cc4c(cc3OC)N(C)[C@H]3[C@@](O)(C(=O)OC)[C@H](OC(C)=O)[C@]5(CC)C=CCN6CC[C@]43[C@@H]65)C2)C1` [Compound 178], the IC50 in experiment [1] (Table 6) was 35 nM; in experiment [2] (Table 6) it was 15 nM.
In the case of `CCC1(NS(=O)(=O)c2ccccc2)CC2CN(CCc3c([nH]c4ccccc34)C(C(=O)OC)(c3cc4c(cc3OC)N(C)C3C(O)(C(=O)OC)C(OC(C)=O)C5(CC)C=CCN6CCC43C65)C2)C1` (centres unmarked) [Compound 179], the IC50 in experiment [1] (Table 7, C20′ sulfonamides) was 45 nM; in experiment [2] (Table 7, C20′ sulfonamides), 50 nM.
In the same order, the values of `CCC1(NS(=O)(=O)c2ccc(C)cc2)CC2CN(CCc3c([nH]c4ccccc34)C(C(=O)OC)(c3cc4c(cc3OC)N(C)C3C(O)(C(=O)OC)C(OC(C)=O)C5(CC)C=CCN6CCC43C65)C2)C1` (centres unmarked) [Compound 180] are 40 nM and 30 nM.
In the same order, the values of `CCC1(NS(=O)(=O)c2ccc(OC)cc2)CC2CN(CCc3c([nH]c4ccccc34)C(C(=O)OC)(c3cc4c(cc3OC)N(C)C3C(O)(C(=O)OC)C(OC(C)=O)C5(CC)C=CCN6CCC43C65)C2)C1` (centres unmarked) [Compound 181] are 35 nM and 30 nM.
For `CCC1(NS(=O)(=O)c2cccc([N+](=O)[O-])c2)CC2CN(CCc3c([nH]c4ccccc34)C(C(=O)OC)(c3cc4c(cc3OC)N(C)C3C(O)(C(=O)OC)C(OC(C)=O)C5(CC)C=CCN6CCC43C65)C2)C1` (centres unmarked) [Compound 182], the IC50 is 450 nM in experiment [1] (Table 7, C20′ sulfonamides) and 490 nM in experiment [2] (Table 7, C20′ sulfonamides).
In the same order, the values of `CCC1(NS(=O)(=O)c2ccccc2[N+](=O)[O-])CC2CN(CCc3c([nH]c4ccccc34)C(C(=O)OC)(c3cc4c(cc3OC)N(C)C3C(O)(C(=O)OC)C(OC(C)=O)C5(CC)C=CCN6CCC43C65)C2)C1` (centres unmarked) [Compound 183] are 360 nM and 420 nM.
For `CCC1(NS(=O)(=O)c2c(C)cc(C)cc2C)CC2CN(CCc3c([nH]c4ccccc34)C(C(=O)OC)(c3cc4c(cc3OC)N(C)C3C(O)(C(=O)OC)C(OC(C)=O)C5(CC)C=CCN6CCC43C65)C2)C1` (centres unmarked) [Compound 184], the IC50 is 500 nM in experiment [1] (Table 7, C20′ sulfonamides) and 580 nM in experiment [2] (Table 7, C20′ sulfonamides).
In the same order, the values of `CC[C@]1(NS(=O)(=O)c2ccc3ccccc3c2)C[C@H]2CN(CCc3c([nH]c4ccccc34)[C@@](C(=O)OC)(c3cc4c(cc3OC)N(C)[C@H]3[C@@](O)(C(=O)OC)[C@H](OC(C)=O)[C@]5(CC)C=CCN6CC[C@]43[C@@H]65)C2)C1` [Compound 185] are 50 nM and 60 nM.
`CCC1(NS(=O)(=O)c2cccc3c(N(C)C)cccc23)CC2CN(CCc3c([nH]c4ccccc34)C(C(=O)OC)(c3cc4c(cc3OC)N(C)C3C(O)(C(=O)OC)C(OC(C)=O)C5(CC)C=CCN6CCC43C65)C2)C1` (centres unmarked) [Compound 186]: the IC50 stood at 30 nM in experiment [1] (Table 7, C20′ sulfonamides) and 30 nM in experiment [2] (Table 7, C20′ sulfonamides).
`CC[C@]1(NC(=O)c2ccc(OC(F)(F)F)cc2)C[C@H]2CN(CCc3c([nH]c4ccc(F)cc34)[C@@](C(=O)OC)(c3cc4c(cc3OC)N(C)[C@H]3[C@@](O)(C(=O)OC)[C@H](OC(C)=O)[C@]5(CC)C=CCN6CC[C@]43[C@@H]65)C2)C1` [Compound 188]: the IC50 in experiment [1] (Table 8, 10′-F compounds) is 0.6 nM; in experiment [2] (Table 8, 10′-F compounds), 0.7 nM.
